In US10899738B2 (THE REGENTS OF THE UNIVERSITY OF MICHIGAN, priority 2016, dated 2021) one finds IC50 data, which are given here for 19 molecules.

Read-outs that look alike come from different tables or passages of the source. Some results are limits rather than exact numbers.

Assay [1] in a line: Cell growth inhibition, CellTiter-Glo Luminescent Cell Viability Assay. It is filed as cell-based. In a few lines: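 Cells seeded at 2,000/well with serially diluted compound and cultured 4 days at 37 °C, 5% CO2. Viability read by CellTiter-Glo luminescence; IC50 derived from dose-response.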
On the technique in general: In ATP-based viability assays light output follows the ATP content of the culture.

Assay [2] has as its target menin protein (Homo sapiens (Human), UniProt O00255). In words: biochemical. Type of assay: binding. The following applies: FP competitive binding; menin protein 4 nM, FAM-MM2 probe 2 nM; read-out: Menin Binding Affinity IC50. In a few lines: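 Test compounds displaced FAM-MM2 (2 nM) from 4 nM menin after 30 min equilibration at room temperature in PBS buffer containing bovine γ-globulin, 4% DMSO and Triton X-100. Binding was followed by fluorescence polarization. Competition curves were fitted by nonlinear regression to give IC50 and Ki.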

Where [3] appears, read: MOLM-13, 96 h, read-out: Cell Growth Inhibition IC50 (μM) MOLM13, MOLM13 cells, 4 days, CellTiter-Glo.
Setting [4] is: MV4-11, 96 h, read-out: Cell Growth Inhibition IC50 (μM) MV4, 11, MV4, 11 cells, 4 days, CellTiter-Glo.
Where [5] appears, read: MOLM-13, 96 h, MOLM13 cells, 4 days, CellTiter-Glo, read-out: Cell Growth Inhibition IC50 (μM) MOLM13.
[6] abbreviates: MV4-11, 96 h, MV4, 11 cells, 4 days, CellTiter-Glo, read-out: Cell Growth Inhibition IC50 (μM) MV4, 11.

menin protein, sequence (O00255 whole entry): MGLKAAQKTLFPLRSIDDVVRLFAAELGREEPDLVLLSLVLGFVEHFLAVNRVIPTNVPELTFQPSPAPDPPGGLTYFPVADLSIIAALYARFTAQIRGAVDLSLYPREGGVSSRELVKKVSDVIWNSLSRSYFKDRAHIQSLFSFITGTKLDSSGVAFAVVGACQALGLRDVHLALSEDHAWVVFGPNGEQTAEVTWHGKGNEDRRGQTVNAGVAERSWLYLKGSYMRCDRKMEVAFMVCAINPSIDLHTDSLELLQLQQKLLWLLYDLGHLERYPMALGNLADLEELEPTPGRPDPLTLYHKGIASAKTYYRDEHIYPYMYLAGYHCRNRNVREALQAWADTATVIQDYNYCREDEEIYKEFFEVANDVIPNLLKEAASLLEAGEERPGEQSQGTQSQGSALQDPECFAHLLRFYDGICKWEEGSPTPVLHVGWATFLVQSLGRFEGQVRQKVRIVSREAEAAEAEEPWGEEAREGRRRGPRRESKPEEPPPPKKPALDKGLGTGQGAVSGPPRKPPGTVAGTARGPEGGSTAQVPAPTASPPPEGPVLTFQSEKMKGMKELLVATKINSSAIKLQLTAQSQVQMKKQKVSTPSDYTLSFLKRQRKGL

`CNC(=O)O[C@@H]1CCC[C@H]1C(Cn1ccnc1C)(c1cccc(F)c1)C1CCN(CC2CN(c3ccc(S(=O)(=O)c4cnn(C)c4)cc3)C2)CC1` (mixture of isomers) [compound 410, rac-(1R,2S)-2-(1-(3-fluorophenyl)-2-(2-methyl-1H-imidazol-1-yl)-1-(1-((1-(4-((1-methyl-1H-pyrazol-4-yl)sulfonyl)phenyl)azetidin-3-yl)methyl)piperidin-4-yl)ethyl)cyclopentyl methylcarbamate]: the IC50 in assay [1] (setting [3]) worked out at 3.1 µM; in assay [1] (setting [4]), 2.7 µM; in assay [2], 0.049 µM.
Take `CNC(=O)O[C@@H]1CCC[C@H]1[C@@](C#N)(c1ccccc1)C1CCN(CC2CN(c3ccc(S(=O)(=O)c4ccncc4)cc3)C2)CC1` (mixture of isomers) [compound 354, rac-(1R,2S)-2-((R)-cyano(phenyl)(1-((1-(4-(pyridin-4-ylsulfonyl)phenyl)azetidin-3-yl)methyl)piperidin-4-yl)methyl)cyclopentyl methylcarbamate]: the IC50 in assay [1] (setting [3]) was determined as 4.7 µM; in assay [1] (setting [4]), 1.3 µM; in assay [2] it was 0.062 µM.
Consider `CNC(=O)O[C@H]1CCC[C@@H]1[C@](C#N)(c1ccccc1)C1CCN(CC2CN(c3ccc(S(=O)(=O)c4ccncc4)cc3)C2)CC1` (mixture of isomers) [compound 353, rac-(1S,2R)-2-((S)-cyano(phenyl)(1-((1-(4-(pyridin-4-ylsulfonyl)phenyl)azetidin-3-yl)methyl)piperidin-4-yl)methyl)cyclopentyl methylcarbamate], for which the IC50 in assay [1] (setting [3]) turned out to be 0.25 µM; in assay [1] (setting [4]) it was 0.075 µM; in assay [2] it was 0.006 µM.
Consider `N#Cc1ccc(N2CC(CN3CCC(C4(C5CCCC5)CNCc5ccccc54)CC3)C2)cc1` (stereo not drawn) [compound 43, 4-(3-((4-(4-cyclopentyl-1,2,3,4-tetrahydroisoquinolin-4-yl)piperidin-1-yl)methyl)azetidin-1-yl)benzonitrile], for which the IC50 came out at 2.1 µM in assay [1] (setting [5]), 0.896 ± 0.056 µM in assay [1] (setting [6]) and 0.026 µM in assay [2].
`N#Cc1ccc(OCCCN2CCC(C3(C4CCCC4)CNCc4ccccc43)CC2)cc1` (stereo not drawn) [compound 19, 4-(3-(4-(4-cyclopentyl-1,2,3,4-tetrahydroisoquinolin-4-yl)piperidin-1-yl)propoxy)benzonitrile]: the IC50 in assay [1] (setting [3]) stood at 7.3 µM; in assay [1] (setting [4]) it was 1.6 ± 0.1 µM; in assay [2], 0.061 µM.
As for `CC(=O)O[C@H]1CCC[C@@H]1C1(C2CCN(CC3CN(c4ccc(S(=O)(=O)C5CC5)cc4)C3)CC2)CN(C)Cc2ccccc21` (mixture of isomers) [compound 203, rac-(1S,2R)-2-(4-(1-((1-(4-(cyclopropylsulfonyl)phenyl)azetidin-3-yl)methyl)piperidin-4-yl)-2-methyl-1,2,3,4-tetrahydroisoquinolin-4-yl)cyclopentyl acetate], the IC50 was 0.687 µM in assay [1] (setting [3]), 0.234 µM in assay [1] (setting [4]) and 0.009 µM in assay [2].
For `CCN1Cc2ccccc2C(C2CCCC2)(C2CCN(CC3CN(c4ccc(S(=O)(=O)c5ccnc(C(F)(F)F)c5)cc4)C3)CC2)C1` (stereo not drawn) [compound 157, 4-cyclopentyl-2-ethyl-4-(1-((1-(4-((2-(trifluoromethyl)pyridin-4-yl)sulfonyl)phenyl)azetidin-3-yl)methyl)piperidin-4-yl)-1,2,3,4-tetrahydroisoquinoline], the values for the IC50 in assay [1] (setting [5]), in assay [1] (setting [6]) and in assay [2] were 4.4 µM, 1.8 µM and 0.016 µM, respectively.
In the case of `CCN1Cc2ccccc2C(C2CCN(CC3CN(c4ccc(S(=O)(=O)c5cnn(C)c5)cc4)C3)CC2)([C@H]2CCC[C@@H]2NC(C)=O)C1` (mixture of isomers) [Cpd. No. 292, rac-N-((1S,2R)-2-(2-ethyl-4-(1-((1-(4-((1-methyl-1H-pyrazol-4-yl)sulfonyl)phenyl)azetidin-3-yl)methyl)piperidin-4-yl)-1,2,3,4-tetrahydroisoquinolin-4-yl)cyclopentyl)acetamide], the IC50 in assay [1] (setting [3]) is 1.34 µM; in assay [1] (setting [4]) it was 0.13 µM; in assay [2], 0.011 µM.
On to `COC(=O)N[C@H]1CCC[C@@H]1C(Cn1ccnc1)(c1ccccc1)C1CCN(CC2CN(c3ccc(S(=O)(=O)c4cnn(C)c4)cc3)C2)CC1` (mixture of isomers) [compound 392, methyl rac-((1S,2R)-2-(2-(1H-imidazol-1-yl)-1-(1-((1-(4-((1-methyl-1H-pyrazol-4-yl)sulfonyl)phenyl)azetidin-3-yl)methyl)piperidin-4-yl)-1-phenylethyl)cyclopentyl) carbamate], for which the IC50 in assay [1] (setting [3]) worked out at 0.76 ± 0.32 µM; in assay [1] (setting [4]), 0.084 ± 0.032 µM; in assay [2] it was 0.007 µM.
`CCN1Cc2ccccc2C(C2CCCC2)(C2CCN(CC3CN(c4ccc(S(=O)(=O)c5cnn(CC)c5)cc4)C3)CC2)C1` (stereo not drawn) [compound 103, 4-cyclopentyl-2-ethyl-4-(1-((1-(4-((1-ethyl-1H-pyrazol-4-yl)sulfonyl)phenyl)azetidin-3-yl)methyl)piperidin-4-yl)-1,2,3,4-tetrahydroisoquinoline]: the IC50 in assay [1] (setting [5]) worked out at 2.26 µM; in assay [1] (setting [6]), 0.49 µM; in assay [2] it was 0.012 µM.
For the molecule `CNC(=O)N[C@H]1CCC[C@@H]1C1(C2CCN(CC3CN(c4ccc(S(=O)(=O)C5CC5)cc4)C3)CC2)CNCc2ccccc21` (mixture of isomers) [compound 285, rac-1-((1S,2R)-2-(4-(1-((1-(4-(cyclopropylsulfonyl)phenyl)azetidin-3-yl)methyl)piperidin-4-yl)-1,2,3,4-tetrahydroisoquinolin-4-yl)cyclopentyl)-3-methylurea], the IC50 worked out at 12.4 µM in assay [1] (setting [3]), 2.48 µM in assay [1] (setting [4]) and 0.009 µM in assay [2].
For the molecule `CCc1cnccc1S(=O)(=O)c1ccc(N2CC(CN3CCC(C4(C5CCCC5)CN(CC)Cc5ccccc54)CC3)C2)cc1` (stereo not drawn) [compound 156, 4-cyclopentyl-2-ethyl-4-(1-((1-(4-((3-ethylpyridin-4-yl)sulfonyl)phenyl)azetidin-3-yl)methyl)piperidin-4-yl)-1,2,3,4-tetrahydroisoquinoline], the IC50 in assay [1] (setting [5]) was found to be 1.8 µM; in assay [1] (setting [6]), 0.654 µM; in assay [2], 0.008 µM.
With `CC(=O)O[C@H]1CCC[C@@H]1C1(C2CCN(CC3CN(c4ccc(S(=O)(=O)C5CC5)cc4)C3)CC2)CN(C)Cc2ccc(F)cc21` (mixture of isomers) [compound 316, rac-(1S,2R)-2-(4-(1-((1-(4-(cyclopropylsulfonyl)phenyl)azetidin-3-yl)methyl)piperidin-4-yl)-6-fluoro-2-methyl-1,2,3,4-tetrahydroisoquinolin-4-yl)cyclopentyl acetate], the IC50 in assay [1] (setting [3]) is 1.8 µM; in assay [1] (setting [4]), 0.3 µM; in assay [2], 0.003 µM.
`COC(=O)N[C@H]1CCC[C@@H]1C(C#N)(c1ccccc1)C1CCN(CC2CN(c3ccc(S(=O)(=O)c4ccc(C(N)=O)cc4)cc3)C2)CC1` (mixture of isomers) [compound 399, methyl rac-((1S,2R)-2-((1-((1-(4-((4-carbamoylphenyl)sulfonyl)phenyl)azetidin-3-yl)methyl)piperidin-4-yl)(cyano)(phenyl)methyl)cyclopentyl)carbamate]: the results for the IC50 in assay [1] (setting [3]), in assay [1] (setting [4]) and in assay [2] were 1.63 µM, 0.11 µM and 0.007 µM, respectively.
Turning to `O=S(=O)(c1ccccc1)c1ccc(N2CC(CN3CCC(C4(C5CCCC5)NCCc5ccccc54)CC3)C2)cc1` (stereo not drawn) [compound 149, 1-cyclopentyl-1-(1-((1-(4-(phenylsulfonyl)phenyl)azetidin-3-yl)methyl)piperidin-4-yl)-1,2,3,4-tetrahydroisoquinoline], the IC50 in assay [1] (setting [5]) was 0.331 µM; in assay [1] (setting [6]) it was 0.493 µM; in assay [2] it was 0.012 µM.
Turning to `CN(C)C(=O)N[C@H]1CCC[C@@H]1C(Cn1ccnc1)(c1ccccc1)C1CCN(CC2CN(c3ccc(S(=O)(=O)c4cnn(C)c4)cc3)C2)CC1` (mixture of isomers) [compound 376, rac-3-((1S,2R)-2-(2-(1H-imidazol-1-yl)-1-(1-((1-(4-((1-methyl-1H-pyrazol-4-yl)sulfonyl)phenyl)azetidin-3-yl)methyl)piperidin-4-yl)-1-phenylethyl)cyclopentyl)-1,1-dimethylurea], the IC50 in assay [1] (setting [3]) was greater than 10 µM; in assay [1] (setting [4]), 10.5 ± 2.08 µM; in assay [2] it was 0.006 µM.
In the case of `CCN1Cc2ccccc2C(C2CCCC2)(C2CCN(CC3CN(c4ccc(C#N)cc4)C3)CC2)C1` (stereo not drawn) [compound 46, 4-(3-((4-(4-cyclopentyl-2-ethyl-1,2,3,4-tetrahydroisoquinolin-4-yl)piperidin-1-yl)methyl)azetidin-1-yl)benzonitrile], the IC50 stood at 5.1 ± 0.2 µM in assay [1] (setting [5]), 0.972 ± 0.558 µM in assay [1] (setting [6]) and 0.023 µM in assay [2].
Regarding `COC(=O)N[C@H]1CCC[C@@H]1C(C#N)(c1ccccc1)C1CCN(CC2CN(c3ccc(S(=O)(=O)c4ccccc4)cc3)C2)CC1` (mixture of isomers) [compound 347, methyl (rac-(1S,2R)-2-(cyano(phenyl)(1-((1-(4-(phenylsulfonyl)phenyl)azetidin-3-yl)methyl)piperidin-4-yl)methyl)cyclopentyl) carbamate], the IC50 in assay [1] (setting [3]) is 0.44 µM; in assay [1] (setting [4]), 0.36 µM; in assay [2], 0.014 µM.
In the case of `COC(=O)N[C@H]1CCC[C@@H]1C(C#N)(c1ccccc1)C1CCN(CC2CN(c3ccc(S(=O)(=O)C4CC4)cc3)C2)CC1` (mixture of isomers) [compound 319, rac-methyl ((1S,2R)-2-(cyano(1-((1-(4-(cyclopropylsulfonyl)phenyl)azetidin-3-yl)methyl)piperidin-4-yl)(phenyl)methyl)cyclopentyl)carbamate], the IC50 in assay [1] (setting [3]) was found to be 2.77 µM; in assay [1] (setting [4]), 0.33 µM; in assay [2] it was 0.031 µM.

A word on the IC50: it is the midpoint of a concentration-inhibition curve.
